“Also recorded” adds a separate entry of the source.
System: Acinetobacter baumannii colistin resistance 357 (R357 strains)
Type: cell-based

Compound	cell growth inhibitory effect (respiration rate), PA108 alone (PA108 5 μM alone)	bacterial growth inhibitory effect (relative respiration rate) in combination with PMB (compound 5 μM + PMB 16 μg/mL, 37° C., 24 hours)	cell growth inhibitory effect (respiration rate), PMB alone (PMB 16 μg/mL alone)
Cc1cc([N+](=O)[O-])cc(-c2ccc(Cl)cc2)c1O [PA108]	no self cell growth inhibitory effect	an activity to improve bacterial susceptibility to a polymyxin-based antibiotic; also recorded: cellular respiration was effectively inhibited	
polymyxin B [PMB, reference compound]			no cell growth inhibitory effect
